Laboratory results as given in patent US20100138935A1, “Detection of cellular stress” (priority 2004, published 2010).
Like-named read-outs stand apart in the source and are kept apart here.

Key:
HOZ mice [1] = test: BUN as a marker of nephrotoxicity in HOZ mice; format: in vivo, mouse; settings: female, 13 mg/kg
Procedure: (§1) Terminal blood samples were taken by cardiac puncture into lithium/heparin-coated tubes for preparation of plasma. Tissues, as defined in each protocol, were routinely dissected as follows:
(§2) Following removal into tubes suitable for plasma preparation, venous blood samples were mixed on a roller for 10 minutes then cooled on ice. Red blood cells were removed by centrifugation at 2,000 rpm for 10 minutes at 8-10° C. The supernatant (plasma) was transferred to a second tube and stored at −70° C. until required for analysis.
(§3) Plasma samples were analysed for appropriate analytes on a Roche autoanalyser (Cobas Integra 400) according to the manufacturer's instructions. The routine markers measured included: (for liver damage) plasma alanine aminotransferase (ALT), aspartate aminotransferase (AST) and alkaline phosphatase (ALP) and (for kidney damage) plasma creatinine and blood urea nitrogen (BUN).
The increase in BUN was 6-fold at 8 hours and 44-fold after 24 hours.

[2] = tested on: HO-1-LacZ (HOZ) transgene; test: LacZ transgene expression in HO-1-LacZ (HOZ) reporter mice; format: in vivo, mouse; settings: female HOZ mice, 13 mg/kg i.p. in isotonic saline, 8 hours or 24 hours
Procedure: (§4) Each test compound was dissolved in the appropriate vehicle solution and administered by intraperitoneal injection (i.p.) at a dose volume of 10 ml/kg. Wherever possible, both naive (untreated) and vehicle-treated controls were used. If a test item whose toxicity in the mouse is poorly characterised was to be used, a dose-ranging experiment was conducted prior to the main experiment. The test item was administered to a single mouse which was monitored for any adverse effects 6-8 hours and 24 hours later. If the single dose ranging mouse tolerated the treatment, the remaining mice were administered the test item according to the protocol.
(§5) Two slices of tissue (˜2 mm thickness) were removed for histochemical analysis of LacZ expression according to methods described below.
(§6) Tissues were washed with PBS and prefixed in 0.2% glutaraldehyde in PBS containing 0.1M MgCl2 and 5 mM EDTA, pH 7.3, for 4 hours at 4° C. on a shaker. After fixation, the tissues were transferred to 20% Sucrose solution and dehydrated overnight at 4° C. The next day they were embedded in cryo-M-bed medium on cork discs and lowered slowly into liquid nitrogen then transferred to −80° C. until sections were required.
(§7) Cryostat sample and chamber temperatures were set to −30° C. The sample to be sectioned was placed in the cryostat one hour prior to sectioning to allow equilibration at the appropriate temperature. Frozen sections (10 μm) were cut and placed on aminopropyltriethoxysilane (APES) coated slides.
(§8) Prior to staining, sections were incubated in 0.2% glutaraldehyde (as above) for 10 minutes at room temperature then washed twice (5 min each) in PBS containing 2 mM MgCl2, 0.01% sodium deoxycholate and 0.02% % Nonidet-P40. Sections were then […] the same wash solution containing 1 mg/ml X-gal, 5 mM potassium ferrocyanide and 5 mM potassium ferricyanide overnight at 37° C. then washed twice in PBS for 5 min, allowed to air dry and mounted in aqueous mounting medium (Hydromount). Slides were evaluated and photographed. • Frozen Method 2
Tissues were excised, immediately placed into chilled 4% paraformaldehyde containing 0.1% glutaraldehyde and 2 mM MgCl2 in PBS, and fixed in the above solution for 3 hours at 2-8° C. with gentle shaking. Fixed tissues were washed at 2-8° C. for 3×5 minutes with chilled PBS containing 2 mM MgCl2 and dehydrated overnight at 2-8° C. in PBS containing 2 mM MgCl2 and 30% (w/v) sucrose overnight The next day dehydrated tissues were embedded in OCT embedding medium using an isopentane/dry ice bath. Embedded tissues were stored at −70° C. until they could be cryosectioned.
Frozen sections were washed three times for 5 minutes in PBS containing 2 mM MgCl2 at 2-8° C. then 3×30 min in detergent wash (PBS containing 2 mM MgCl2 0.01% Nonidet P40 and 0.1% Sodium Deoxycholate) at 2-8° C. They were then stained overnight in PBS containing 2 mM MgCl2, 0.02% Nonidet P40, 0.1% Sodium Deoxycholate, 5 mM Potassium ferrocyanide, 5 mM Potassium ferricyanide, and 0.1% X-gal at 37° C. The next day, the slides were washed three times for 5 minutes in PBS containing 2 mM MgCl2 followed by three times for 5 minutes in PBS at room temperature. They were equilibrated with 100% ethanol (5 min) and counterstained with Eosin for 1 min at room temperature. Following dehydration and mounting they were evaluated and photographed. • Whole Mount Method
Tissue specimens that had been prefixed in fresh 4% paraformaldehyde were stained immediately using the procedure for “Whole Mount X-Gal Histochemistry of Transgenic Animal Tissues” (see http://www.rodentia.com/wmc/docs/lacZ bible.html), summarised below) was followed, and the post-fixed tissues were transferred to 70% (v/v) ethanol.
Following fixation for one hour in 4% paraformaldehyde, tissues were rinsed three times, for thirty minutes each, with rinse buffer (100 mM sodium phosphate (pH 7.3), 2 mM MgCl2, 0.01% sodium deoxycholate, 0.02% NP-40) at room temperature. […]

HOZ mice [3] = test: Plasma ALT as a marker of hepatotoxicity in HOZ mice; format: in vivo, mouse; settings: 13 mg/kg; for Plasma ALT: female
Procedure: as §1, §2, §3
Two plasma enzyme markers, ALT and AST, were used as markers of hepatotoxicity in HOZ mice treated with cadmium chloride or sodium arsenite. The results of this analysis for HOZ mice treated with 10 mg/kg cadmium chloride are shown in Table 1 and for HOZ mice treated with 2-8 mg/kg cadmium chloride or 13 mg/kg sodium arsenite in Tables 2 and 3.

HOZ mice [4] = test: Plasma AST as a marker of hepatotoxicity in HOZ mice; format: in vivo, mouse; settings: female, 13 mg/kg
Procedure: as §1, §2, §3
Two plasma enzyme markers, ALT and AST, were used as markers of hepatotoxicity in HOZ mice treated with cadmium chloride or sodium arsenite. […]

p21-LacZ (WAZ) transgene = format: in vivo, mouse
Procedure: as §4, §5
Mouse brains were dissected so as to reveal the dentate gyrus as fully as possible. In the case of the kidneys, one kidney was cut in longitudinal section and the other in transverse section.
as §6, §7, §8
In experiments on WAZ44 mice, single doses of etoposide (of up to 40 mg/kg) were administered i.p. Animals were killed after 24 hours and tissues fixed and stained for LacZ expression.
Acrylamide, at a total dose of 150 mg/kg, induces neuropathy manifesting as partial paralysis approximately 7 days after the start of treatment. The dose may be administered as a single injection or divided; however, the effect depends upon the total dose, and since a single dose of 150 mg/kg is likely to be acutely toxic, a five-day coursed of injections of 30 mg/kg is preferred. Acrylamide intoxication is associated with both central and peripheral effects; the central effects include behavioural changes (increased milk-licking) which occur within two days of dosing, preceding peripheral changes such as reduced hind-limb grip and reduced locomotor activity by up to three weeks (Teal and Evans, 1982). In experiments on WAZ44 mice, five doses of acrylamide (30 mg/kg) were administered i.p.
A frozen section from the brain of an acrylamide-treated WAZ44 mouse was prepared and stained using Frozen Method 1. A dissecting microscope was used to view the slides and generate photomicrographs (a) transverse section of whole brain, original magnification ×10; (b) dentate gyrus and hippocampus, original magnification ×25 (c) cortex, original magnification ×63.
WAZ mice received single i.p. injections of etoposide (40 mg/kg); mercuric chloride (HgCl2, 8.5 mg/kg); lipopolysaccharide (LPS, 1.5 mg/kg) or paracetamol (300 mg/kg). WAZ mice received a single i.p. injection of each compound at a single dose level (see FIG. 5). Twenty-four hours later, the mice were killed and the brains sectioned and stained for LacZ expression.

[5] = dissolved in DMSO, injected intra-peritoneally; cited from earlier work
[6] = tested on: HO-1-LacZ reporter transgene in HEK293 cells; test: Transient transfection of HO-1-LacZ reporter construct into HEK293 cells, induction with haemin; format: cell-based, mouse
From the text: We have used RedET recombination cloning (Zhang et al., 2000) to produce a HO-1-LacZ reporter transgene. A LacZ-SV40polyA minigene was engineered to contain homologous regions to exons 1 and 2 of the HO-1 gene. This minigene cassette also contains a bacterial Amp gene, at the 3′-end, which was used as a selectable marker during cloning. The minigene was then introduced, by homologous recombination, into a BAC clone containing the mouse HO-1 locus (clone RPCI-23 290L07, HGMP Resource Centre) substituting for the endogenous HO-1 exon1 and intron1 sequences. Thus, the HO-1 promoter would express LacZ from the ATG start codon, in place of the HO-1 protein. The correct position of the LacZ-SV40polyA minigene was confirmed by sequencing both the 5′- and 3′-junction regions. The HO-1 reporter locus, containing most of the HO-1 gene together with 16.5 kb of upstream promoter and 8 kb of 3′ sequence, was then recombined out from the BAC clone into the pACYC low copy number plasmid backbone.

[7] = WAZ mice, single i.p. injection (etoposide 40 mg/kg; HgCl2 8.5 mg/kg; LPS 1.5 mg/kg; paracetamol 300 mg/kg), 24 hours

In the case of `O=[As]O` [Sodium Arsenite, sodium arsenite], the BUN (HOZ mice [1]; 8 hours) is reported as 5.62, the BUN (HOZ mice [1]; 24 hours) is reported as 3.50 and the “HOZ transgene expression in liver” value [2] is reported as “expression of the HOZ transgene at both time points”. For the same compound, the “hepatotoxic response (plasma ALT, AST)” value (HOZ mice [3]; HOZ mice) was “did not exhibit a hepatotoxic response”, the “Plasma ALT” value (HOZ mice [3]; 8 hours) was 43.0 u/L and the “Plasma ALT” value (HOZ mice [3]; 24 hours) was 26.7 u/L. For the same compound, the “Plasma AST” value (HOZ mice [4]; 8 hours) was 107.3 u/L and the “Plasma AST” value (HOZ mice [4]; 24 hours) was 67.8 u/L.
With `COc1cc([C@@H]2c3cc4c(cc3[C@@H](O[C@@H]3O[C@@H]5CO[C@@H](C)O[C@H]5[C@H](O)[C@H]3O)[C@H]3COC(=O)[C@H]23)OCO4)cc(OC)c1O` [etoposide] the “LacZ transgene expression in tissues” value (p21-LacZ (WAZ) transgene; WAZ44 mice, single doses of up to 40 mg/kg i.p., killed after 24 hours) was “significant expression in the spleen, the thymus and in some regions of the brain”, the “expression of the WAZ transgene in the brain” value (“expression … in the brain” for short) (p21-LacZ (WAZ) transgene; mouse, in vivo) was “high levels of expression” and the “pattern of WAZ transgene induction in the brain” value (“pattern” below) (p21-LacZ (WAZ) transgene; mouse, in vivo) was “induced expression in the same cells within the various regions in the brain”. The LD50 [5] was 40 mg/kg.
In the case of `C=CC1=C(C)c2cc3[n-]c(cc4nc(cc5[n-]c(cc1n2)c(C)c5C=C)C(C)=C4CCC(=O)O)c(CCC(=O)O)c3C.[Cl-].[Fe+3]` [haemin], the “increase in the LacZ labelling index over uninduced control cells” value [6] is reported as 11 fold.
With `[Cl][Hg][Cl]` [mercuric chloride] the “expression … in the brain” value (p21-LacZ (WAZ) transgene; [7]) was “high levels of expression” and the “pattern” value (p21-LacZ (WAZ) transgene; [7]) was “induced expression in the same cells within the various regions in the brain”.
For `CC(=O)Nc1ccc(O)cc1` [paracetamol], the “expression … in the brain” value (p21-LacZ (WAZ) transgene; mouse, in vivo) was “high levels of expression” and the “pattern” value (p21-LacZ (WAZ) transgene; mouse, in vivo) was “distinct pattern of induction within the hippocampus, cerebellum and cortex”.
With lipopolysaccharide [LPS] the “expression … in the brain” value (p21-LacZ (WAZ) transgene; [7]) was “high levels of expression” and the “pattern” value (p21-LacZ (WAZ) transgene; [7]) was “induced expression in the same cells within the various regions in the brain”.
